How the values were obtained:
[1] = test system: serum proteomes prepared from rats with acute myocardial infarction; assay: Photoaffinity labeling of serum proteomes, gel-based fluorescence imaging; type: binding, rat; conditions: UV light 30 min
Procedure: Based on the results of the potency in the enzyme assay, probe 1 was selected and used throughout photolabeling studies (Figure 3). The serum proteomes prepared from rats with acute myocardial infarction were incubated with probe 1 at concentrations of […], and 300, 100, and 30 nM, respectively. The mixture was exposed to UV light for 30 min, and then was imaged using the Tanon-6100 Chemiluminescent Imaging system.
An attempt to semi-quantitatively analyze the serum-free GP level after an acute myocardial infarction was explored. Serum blanks were added in increasing quantities of RMGPa (0, 12.5, 25, 50, and 100 ng/mL at a final concentration) in the presence of an excess of probe 1 (10 μM). In the same way, probe 1 was added to the serum in an acute myocardial infarction model in a rat. […]
Blood samples prepared from rats with acute myocardial infarction were drawn from the abdominal aorta in rats after coronary ligation using a 23-gauge needle. […] The protein concentration of the suspension was measured according to the Bradford method. […] The band densities were calculated with Quantity One software 4.6.2 (Bio-Rad Laboratories, Inc., Hercules, CA, USA). […] The data were recorded on an LTQ-Orbitrap Fusion mass spectrometer (ThermoFisher Scientific Inc., Waltham, MA, USA) coupled to an Easy-nLC 1000 LC System (Thermo Fischer Scientic). […]

[2] = target: T1, rabbit muscle glycogen phosphorylase a (RMGPa) (Oryctolagus cuniculus, UniProt P00489); assay: Enzyme inhibition assay against rabbit muscle glycogen phosphorylase a (phosphate release from glucose-1-phosphate); type: biochemical; conditions: mean ± S.D. of three determinations; NI means no inhibition
T1 sequence (P00489 2-843 limits assumed): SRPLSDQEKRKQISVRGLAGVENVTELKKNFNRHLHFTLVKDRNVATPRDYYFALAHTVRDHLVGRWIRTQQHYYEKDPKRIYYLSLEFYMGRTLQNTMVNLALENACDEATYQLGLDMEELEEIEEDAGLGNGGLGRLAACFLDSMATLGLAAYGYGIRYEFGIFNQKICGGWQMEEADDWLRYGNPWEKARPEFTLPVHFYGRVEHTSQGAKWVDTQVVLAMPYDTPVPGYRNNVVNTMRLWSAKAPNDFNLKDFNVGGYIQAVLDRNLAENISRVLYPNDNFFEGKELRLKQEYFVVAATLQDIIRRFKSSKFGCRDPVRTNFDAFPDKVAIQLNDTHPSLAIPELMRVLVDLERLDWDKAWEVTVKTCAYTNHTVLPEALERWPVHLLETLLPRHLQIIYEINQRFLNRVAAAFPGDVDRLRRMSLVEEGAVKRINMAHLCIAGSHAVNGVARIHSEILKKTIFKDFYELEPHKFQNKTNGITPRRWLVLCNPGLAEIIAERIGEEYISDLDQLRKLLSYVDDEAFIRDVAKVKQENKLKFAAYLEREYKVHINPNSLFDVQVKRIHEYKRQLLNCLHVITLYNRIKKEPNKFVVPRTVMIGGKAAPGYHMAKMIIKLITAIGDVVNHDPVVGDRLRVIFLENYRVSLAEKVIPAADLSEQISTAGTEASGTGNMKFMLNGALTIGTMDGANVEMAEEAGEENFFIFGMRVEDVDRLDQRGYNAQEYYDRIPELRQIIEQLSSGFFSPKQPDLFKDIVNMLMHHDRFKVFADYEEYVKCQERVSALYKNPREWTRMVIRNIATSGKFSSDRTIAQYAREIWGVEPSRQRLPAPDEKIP
Procedure: To understand the validity of the synthetic probes, the synthesized probes 1–3 were evaluated in an enzyme inhibition assay against rabbit muscle glycogen phosphorylase a (RMGPa). As described previously, the activity of RMGPa was measured through detecting the release of phosphate from glucose-1-phosphate in the direction of glycogen synthesis, based on the published method.
The inhibitory activity of the test compounds against RMGPa was monitored using a microplate reader (BIO-RAD, Bio-Rad Laboratories, Hercules, CA, USA), based on the published method. In brief, RMGPa activity was measured in the direction of glycogen synthesis by the release of phosphate from glucose-1-phosphate. Each test compound was dissolved in DMSO and diluted at different concentrations for IC50 determination. The enzyme was added to 100 μL of buffer containing 50 mM Hepes (pH = 7.2), 100 mM KCl, 2.5 mM MgCl2, 0.5 mM glucose-1-phosphate, 1 mg/mL glycogen, and the test compound in 96-well microplates (Costar, Corning Incorporated, Corning, NY, USA). After the addition of 150 μL of 1 M HCl containing 10 mg/mL ammonium molybdate and 0.38 mg/mL malachite green, reactions were run at 22 °C for 25 min, and then the phosphate absorbance was measured at 655 nm. The IC50 values were estimated by fitting the inhibition data to a dose-dependent curve using a logistic derivative equation.

Structure (SMILES)	Labelling of protein bands with MW of about 90–100 kDa in semi-quantitative analysis ([1]; 10 μM probe, rat AMI serum and serum blanks with added RMGPa 0–100 ng/mL)	Labelling of protein band with MW of about 90–100 kDa (consistent with MW of GP) ([1]; probe at 10, 3, and 1 mM, and 300, 100, and 30 nM, 2.0 mg/mL proteomes)	IC50 [2] [µM]	melting point [°C]	RMGPa IC50 [2]
CN(C)c1cccc2c(S(=O)(=O)NCCCC[C@H](NC(=O)c3ccc(C(=O)c4ccccc4)cc3)C(=O)OCc3cn(CCOCCOCCOCCOC4CCN(C(=O)[C@H](Cc5ccc(F)cc5)NC(=O)c5cc6cc(Cl)ccc6[nH]5)CC4)nn3)cccc12 [Compound 1, N-[(S)-1-(4-{2-[2-(2-{2-[4-({[(S)-2-(4-Benzoylbenzamido)-6-(dansylamide)hexanoyl]oxy}methyl)-1H-1,2,3-triazol-1-yl]ethoxy}ethoxy)ethoxy]ethoxy}piperidin-1-yl)-3-(4-fluorophenyl)-1-oxopropan-2-yl]-5-chloro-1H-indole-2-carboxamide]	efficiently labeled	clearly labelled	13.2 ± 5.87	151 to 153	
CN(C)c1cccc2c(S(=O)(=O)NCCCCC(NC(=O)c3ccc(C(=O)c4ccccc4)cc3)C(=O)N[C@@H](CCCCNC(=O)CCCC[C@@H]3SC[C@H]4NC(=O)N[C@@H]34)C(=O)OCc3cn(CCOCCOCCOCCOC4CCN(C(=O)[C@H](Cc5ccc(F)cc5)NC(=O)c5cc6cc(Cl)ccc6[nH]5)CC4)nn3)cccc12 (stereo partly drawn) [Compound 2, N-[(S)-1-(4-{2-[2-(2-{2-[4-({[(S)-2-[(S)-2-(4-Benzoylbenzamido)-6-(dansylamide)hexanamido]-6-(5-{(3aR,4S,6aS)-2-oxohexahydro-1H-thieno[3,4-d]imidazol-1-yl}pentanamido)hexanoyl]oxy}methyl)-1H-1,2,3-triazol-1-yl]ethoxy}ethoxy)ethoxy]ethoxy}piperidin-1-yl)-3-(4-fluorophenyl)-1-oxopropan-2-yl]-5-chloro-1H-indole-2-carboxamide]				159 to 161	no inhibitory activity
[N-]=[N+]=NCC(=O)NCCCC[C@H](NC(=O)c1ccc(C(=O)c2ccccc2)cc1)C(=O)OCc1cn(CCOCCOCCOCCOC2CCN(C(=O)[C@H](Cc3ccc(F)cc3)NC(=O)c3cc4cc(Cl)ccc4[nH]3)CC2)nn1 [Compound 3, N-[(S)-1-(4-{2-[2-(2-{2-[4-({[(S)-2-(4-Benzoylbenzamido)-6-(2-azidoacetamido)hexanoyl]oxy}methyl)-1H-1,2,3-triazol-1-yl]ethoxy}ethoxy)ethoxy]ethoxy}piperidin-1-yl)-3-(4-fluorophenyl)-1-oxopropan-2-yl]-5-chloro-1H-indole-2-carboxamide]				113 to 115	
O=C(N[C@@H](Cc1ccc(F)cc1)C(=O)N1CCC(OCCOCCOCCOCCO)CC1)c1cc2cc(Cl)ccc2[nH]1 [Compound 11, N-{(S)-1-[4-(2-{2-[2-(2-Hydroxyethoxy)ethoxy]ethoxy}ethoxy)piperidin-1-yl]-3-(4-fluorophenyl)-1-oxopropan-2-yl}-5-chloro-1H-indole-2-carboxamide]			0.43 ± 0.16	103 to 105	

Reference: paper PMC6413153, “Design, Synthesis, and Use of Novel Photoaffinity Probes in Measuring the Serum Concentration of Glycogen Phosphorylase” (Molecules, 2019)
